Reference: ChEMBL document CHEMBL4616609, “Potent non-hydroxamate inhibitors of histone deacetylase-8: Role and scope of an isoindolin-2-yl linker with an α-amino amide as the zinc-binding unit” (Bioorg Med Chem Lett, 2020)

Target: Histone deacetylase 1 (Homo sapiens, UniProt Q13547)
Test: Inhibition of HDAC1 (unknown origin)

Histone deacetylase 1, sequence (Q13547 whole entry): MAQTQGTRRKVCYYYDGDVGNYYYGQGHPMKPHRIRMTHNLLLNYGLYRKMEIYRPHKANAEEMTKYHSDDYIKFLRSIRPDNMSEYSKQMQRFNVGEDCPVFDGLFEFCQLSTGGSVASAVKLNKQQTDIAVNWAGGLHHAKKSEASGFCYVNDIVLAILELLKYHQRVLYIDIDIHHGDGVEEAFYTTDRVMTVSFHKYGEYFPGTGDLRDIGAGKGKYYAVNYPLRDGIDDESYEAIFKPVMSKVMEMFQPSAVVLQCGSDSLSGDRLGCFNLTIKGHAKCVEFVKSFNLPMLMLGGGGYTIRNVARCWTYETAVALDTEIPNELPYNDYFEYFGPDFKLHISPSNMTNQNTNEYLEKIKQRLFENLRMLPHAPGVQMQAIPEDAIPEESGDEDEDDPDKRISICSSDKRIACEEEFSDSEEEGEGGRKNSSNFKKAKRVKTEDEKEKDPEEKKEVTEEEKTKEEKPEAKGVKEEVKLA

| IC50 | Structure (SMILES) |
| --- | --- |
| 8.8 µM | CC(=O)Nc1ccc2c(c1)CN(C(=O)[C@H](N)Cc1ccc(Cl)cc1Cl)C2 |

Target: T1, Protein deacetylase HDAC6 (Homo sapiens, UniProt Q9UBN7)
T1 sequence (Q9UBN7 whole entry): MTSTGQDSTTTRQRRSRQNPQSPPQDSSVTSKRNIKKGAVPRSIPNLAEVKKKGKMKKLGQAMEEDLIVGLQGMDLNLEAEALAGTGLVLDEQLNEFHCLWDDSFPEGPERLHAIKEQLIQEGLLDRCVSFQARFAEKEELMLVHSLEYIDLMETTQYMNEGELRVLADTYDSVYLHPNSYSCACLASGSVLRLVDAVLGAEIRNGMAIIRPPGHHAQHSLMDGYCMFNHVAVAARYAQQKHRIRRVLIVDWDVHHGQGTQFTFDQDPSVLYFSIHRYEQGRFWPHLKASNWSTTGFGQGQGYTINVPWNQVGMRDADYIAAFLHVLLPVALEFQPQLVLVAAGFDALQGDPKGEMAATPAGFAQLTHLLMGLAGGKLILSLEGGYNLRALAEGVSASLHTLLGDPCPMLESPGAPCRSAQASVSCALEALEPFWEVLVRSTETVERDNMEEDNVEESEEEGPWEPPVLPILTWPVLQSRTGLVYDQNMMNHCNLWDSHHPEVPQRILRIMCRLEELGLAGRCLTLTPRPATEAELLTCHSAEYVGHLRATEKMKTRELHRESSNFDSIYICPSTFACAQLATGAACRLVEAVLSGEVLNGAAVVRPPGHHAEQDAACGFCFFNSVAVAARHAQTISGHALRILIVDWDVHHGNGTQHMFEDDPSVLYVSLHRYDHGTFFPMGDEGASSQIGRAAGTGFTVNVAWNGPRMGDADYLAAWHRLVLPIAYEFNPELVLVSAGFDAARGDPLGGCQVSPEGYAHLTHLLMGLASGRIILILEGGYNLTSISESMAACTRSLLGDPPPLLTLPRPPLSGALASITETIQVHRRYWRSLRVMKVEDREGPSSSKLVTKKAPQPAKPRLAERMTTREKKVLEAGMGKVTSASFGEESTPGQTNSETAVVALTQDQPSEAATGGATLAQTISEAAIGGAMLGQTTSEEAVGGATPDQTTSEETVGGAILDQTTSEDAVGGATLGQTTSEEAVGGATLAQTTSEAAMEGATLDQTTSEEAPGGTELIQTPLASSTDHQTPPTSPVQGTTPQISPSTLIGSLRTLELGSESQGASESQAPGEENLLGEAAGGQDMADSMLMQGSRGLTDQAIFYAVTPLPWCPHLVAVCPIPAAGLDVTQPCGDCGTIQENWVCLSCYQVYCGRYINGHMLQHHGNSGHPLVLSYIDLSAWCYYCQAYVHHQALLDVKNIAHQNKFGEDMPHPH
Test: Inhibition of HDAC6 (unknown origin)

| IC50 | Structure (SMILES) |
| --- | --- |
| > 30 µM | CC(=O)Nc1ccc2c(c1)CN(C(=O)[C@H](N)Cc1ccc(Cl)cc1Cl)C2 |

Target: T2, Histone deacetylase 8 (Homo sapiens, UniProt Q9BY41)
T2 sequence (Q9BY41 whole entry): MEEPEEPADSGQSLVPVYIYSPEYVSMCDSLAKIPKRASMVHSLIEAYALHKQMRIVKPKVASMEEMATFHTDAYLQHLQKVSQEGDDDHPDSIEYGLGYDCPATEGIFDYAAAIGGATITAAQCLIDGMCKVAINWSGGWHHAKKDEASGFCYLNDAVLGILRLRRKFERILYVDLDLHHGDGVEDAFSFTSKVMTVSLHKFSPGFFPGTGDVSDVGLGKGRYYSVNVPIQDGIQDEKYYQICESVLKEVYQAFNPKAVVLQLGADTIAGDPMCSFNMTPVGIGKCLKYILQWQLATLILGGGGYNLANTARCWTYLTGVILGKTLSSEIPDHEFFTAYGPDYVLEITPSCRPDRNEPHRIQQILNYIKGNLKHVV
Test: Inhibition of HDAC8 (unknown origin)

| Structure (SMILES) | IC50 |
| --- | --- |
| C[C@@H](NC(=O)[C@H](N)Cc1ccc(Cl)cc1Cl)c1ccccc1 | 25.3 µM |
| N[C@H](Cc1ccc(Cl)cc1Cl)C(=O)N1CCc2ccccc2C1 | 2.06 µM |
| N[C@H](Cc1ccc(Cl)cc1Cl)C(=O)NCCc1ccc(O)c(O)c1 | 2.07 µM |
| N[C@H](Cc1ccc(Cl)cc1Cl)C(=O)N1Cc2ccc(NC(=O)CCc3ccccc3)cc2C1 | 0.259 µM |
| N[C@H](Cc1ccc(Cl)cc1Cl)C(=O)N1Cc2ccc(NC(=O)Cc3ccccc3)cc2C1 | 0.232 µM |
| N[C@H](Cc1ccccc1)C(=O)N1Cc2ccccc2C1 | 1.15 µM |
| N[C@H](Cc1ccc(Cl)cc1Cl)C(=O)NCCc1ccc(O)cc1 | 1.25 µM |
| N[C@H](Cc1ccc(O)cc1)C(=O)N1CCc2ccccc2C1 | 21.3 µM |
| CN1CCN(C(=O)[C@H](N)Cc2ccccc2)CC1 | 11 µM |
| N[C@H](Cc1ccc(Cl)cc1Cl)C(=O)NC1Cc2ccccc2C1 | 8.76 µM |
| N[C@H](Cc1ccccc1)C(=O)N1CCN(c2ccccc2)CC1 | > 600 µM |
| N[C@H](Cc1ccc(Cl)cc1Cl)C(=O)NCCc1c[nH]c2ccccc12 | 0.97 µM |
| COc1ccc(NC(=O)[C@H](N)Cc2ccc(Cl)cc2Cl)cc1 | 2.67 µM |

Continued by falling IC50, values first:

| IC50 | Structure (SMILES) |
| --- | --- |
| 410 µM | N[C@H](Cc1ccc(Cl)cc1Cl)C(=O)O |
| 76.4 µM | C[C@H](NC(=O)[C@H](N)Cc1ccc(Cl)cc1Cl)c1ccccc1 |
| 16.6 µM | COc1ccc(CNC(=O)[C@H](N)Cc2ccc(Cl)cc2Cl)cc1 |
| 16.5 µM | CNC(=O)[C@H](N)Cc1ccc(Cl)cc1Cl |
| 10.7 µM | N[C@H](Cc1ccccc1)C(=O)N1CCc2ccccc2C1 |
| 10.5 µM | N[C@H](Cc1ccc(Cl)cc1Cl)C(=O)Nc1ccc2[nH]c3ccccc3c2c1 |
| 4.28 µM | N[C@H](Cc1ccc(Cl)cc1Cl)C(=O)NCc1ccccc1 |
| 4.28 µM | N[C@H](Cc1ccc(O)cc1)C(=O)N1Cc2ccccc2C1 |
| 3.85 µM | N[C@H](Cc1ccc(Cl)cc1Cl)C(=O)NCCc1cccnc1 |
| 3 µM | N[C@H](Cc1ccc(Cl)cc1Cl)C(=O)NCc1cccs1 |
| 2.5 µM | N[C@H](Cc1ccc(Cl)cc1Cl)C(=O)NCCc1ccccc1 |
| 2.01 µM | N[C@H](Cc1ccc(Cl)cc1Cl)C(=O)NCCCc1ccccc1 |
| 1.77 µM | N[C@H](Cc1ccc(Cl)cc1Cl)C(=O)NCCc1c[nH]c2ccc(O)cc12 |
| 0.258 µM | CNC(=O)c1ccc2c(c1)CN(C(=O)[C@H](N)Cc1ccc(Cl)cc1Cl)C2 |
| 0.21 µM | N[C@H](Cc1ccc(Cl)cc1Cl)C(=O)N1Cc2ccccc2C1 |
| 0.176 µM | CNCc1ccc2c(c1)CN(C(=O)[C@H](N)Cc1ccc(Cl)cc1Cl)C2 |
| 0.13 µM | Nc1ccc2c(c1)CN(C(=O)[C@H](N)Cc1ccc(Cl)cc1Cl)C2 |
| 0.101 µM | CC(=O)Nc1ccc2c(c1)CN(C(=O)[C@H](N)Cc1ccc(Cl)cc1Cl)C2 |

Target: Histone deacetylase 2 (Homo sapiens, UniProt Q92769)
Sequence (Q92769 whole entry): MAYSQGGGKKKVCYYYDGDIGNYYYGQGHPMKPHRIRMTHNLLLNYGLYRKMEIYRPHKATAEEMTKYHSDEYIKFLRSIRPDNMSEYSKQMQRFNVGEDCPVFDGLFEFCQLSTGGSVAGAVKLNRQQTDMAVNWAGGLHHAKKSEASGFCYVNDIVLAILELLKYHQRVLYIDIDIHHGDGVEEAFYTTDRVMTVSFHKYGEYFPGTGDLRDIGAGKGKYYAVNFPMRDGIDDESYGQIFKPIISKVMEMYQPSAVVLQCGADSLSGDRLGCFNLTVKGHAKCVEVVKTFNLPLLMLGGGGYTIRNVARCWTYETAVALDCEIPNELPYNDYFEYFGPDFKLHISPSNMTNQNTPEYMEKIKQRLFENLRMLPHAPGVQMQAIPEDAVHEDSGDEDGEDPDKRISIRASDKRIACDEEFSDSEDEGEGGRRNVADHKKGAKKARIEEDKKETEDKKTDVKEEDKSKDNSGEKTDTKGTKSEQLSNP
Test: Inhibition of HDAC2 (unknown origin)

| IC50 | Structure (SMILES) |
| --- | --- |
| > 30 µM | CC(=O)Nc1ccc2c(c1)CN(C(=O)[C@H](N)Cc1ccc(Cl)cc1Cl)C2 |
